Data published in ChEMBL document CHEMBL5331051, “Cationic, amphipathic small molecules based on a triazine-piperazine-triazine scaffold as a new class of antimicrobial agents” (Eur J Med Chem, 2022).
In brackets after ≈: the same amount, converted by molar mass. Activity calls are given as the source filed them. The rule behind the calls is not given here.

Legend:
[1] = system: Staphylococcus aureus; assay: Antibacterial activity against methicillin-resistant Staphylococcus aureus CCARM 3095 strain assessed as bacterial growth inhibition measured at 18 to 24 hrs by microdilution assay; assay type: functional; details: time 18-24 hrs
[2] = system: Staphylococcus aureus; assay: Additive antibacterial activity against multidrug-resistant Staphylococcus aureus CCARM 3089 strain assessed as fractional inhibitory concentration index in presence of oxacillin by checkerboard assay; assay type: functional
[3] = system: Pseudomonas aeruginosa; assay: Synergistic antibacterial activity against multidrug-resistant Pseudomonas aeruginosa CCARM 2095 strain assessed as fractional inhibitory concentration index in presence of chloramphenicol by checkerboard assay; assay type: functional
[4] = system: Erythrocyte; assay: Hemolytic activity in sheep RBC assessed as minimal hemolytic concentration causing 10% hemolysis incubated for 1 hr by ELISA; assay type: toxicity, cell-based, Ovis aries
[5] = system: Staphylococcus aureus; assay: Antibacterial activity against methicillin-resistant Staphylococcus aureus CCARM 3089 strain assessed as bacterial growth inhibition measured at 18 to 24 hrs by microdilution assay; assay type: functional; details: time 18-24 hrs
[6] = system: Pseudomonas aeruginosa; assay: Synergistic antibacterial activity against multidrug-resistant Pseudomonas aeruginosa CCARM 2095 strain assessed as chloramphenicol MIC by checkerboard assay; assay type: functional
[7] = system: Escherichia coli; assay: Antibacterial activity against Escherichia coli KCTC 1682 strain assessed as bacterial growth inhibition measured at 18 to 24 hrs in presence of 2.5 mM CaCl2 by microdilution assay; assay type: functional; details: time 18-24 hrs
[8] = system: Pseudomonas aeruginosa; assay: Antibacterial activity against Pseudomonas aeruginosa KCTC 1637 strain assessed as bacterial growth inhibition measured at 18 to 24 hrs by microdilution assay; assay type: functional; details: time 18-24 hrs
[9] = system: Cell membrane; assay: Induction of outer membrane permeabilization in Escherichia coli KCTC 1682 assessed as increase in fluorescence intensity at 2 to 8 ug/ml by NPN staining based analysis; details: dose 2-8 µg/ml
[10] = system: Pseudomonas aeruginosa; assay: Synergistic antibacterial activity against multidrug-resistant Pseudomonas aeruginosa CCARM 2095 strain assessed as ciprofloxacin fractional inhibitory concentration by checkerboard assay; assay type: functional
[11] = system: Staphylococcus aureus; assay: Synergistic antibacterial activity against methicillin-resistant Staphylococcus aureus CCARM 3089 strain assessed as oxacillin MIC by checkerboard assay; assay type: functional
[12] = system: Staphylococcus aureus; assay: Antibacterial activity against Staphylococcus aureus KCTC 1621 strain assessed as bacterial growth inhibition measured at 18 to 24 hrs in presence of 2.5 mM CaCl2 by microdilution assay; assay type: functional; details: time 18-24 hrs
[13] = system: Pseudomonas aeruginosa; assay: Synergistic antibacterial activity against multidrug-resistant Pseudomonas aeruginosa CCARM 2095 strain assessed as bacterial growth inhibition in presence of ciprofloxacin by checkerboard assay; assay type: functional
[14] = system: Cell membrane; assay: Induction of cell membrane depolarization in Staphylococcus aureus assessed as fluorescence intensity at 2 to 16 times MIC by DiSC3(5) dye based fluorescence assay; assay type: subcellular
[15] = system: Lipopolysaccharide (LPS); assay: Binding affinity to Escherichia coli O111:B4 lipopolysaccharide assessed as suppression of FTIC labeled LPS binding to mouse RAW264.7 cells at 20 ug/ml pretreated with LPS followed by compound addition by flow cytometer assay (reference value: 67.4%); assay type: cell-based; details: dose 20.0 µg/ml
[16] = system: Pseudomonas aeruginosa; assay: Synergistic antibacterial activity against multidrug-resistant Pseudomonas aeruginosa CCARM 2095 strain assessed as ciprofloxacin MIC by checkerboard assay; assay type: functional
[17] = system: Escherichia coli; assay: Antibacterial activity against Escherichia coli KCTC 1682 strain assessed as bacterial growth inhibition measured after 6 hrs in presence of proteinase K by radial diffusion assay; assay type: functional, organism-based
[18] = system: Staphylococcus aureus; assay: Antibacterial activity against Staphylococcus aureus KCTC 1621 strain assessed as bacterial growth inhibition measured at 18 to 24 hrs in presence of 4.5 mM KCl by microdilution assay; assay type: functional; details: time 18-24 hrs
[19] = system: Staphylococcus aureus; assay: Additive antibacterial activity against multidrug-resistant Staphylococcus aureus CCARM 3089 strain assessed as fractional inhibitory concentration index in presence of chloramphenicol by checkerboard assay; assay type: functional
[20] = system: Staphylococcus aureus; assay: Synergistic antibacterial activity against methicillin-resistant Staphylococcus aureus CCARM 3089 strain assessed as bacterial growth inhibition in presence of ciprofloxacin by checkerboard assay; assay type: functional
[21] = system: Cell membrane; assay: Induction of cell membrane depolarization in Staphylococcus aureus assessed as increase in fluorescence intensity at 2 times MIC by SYTOX green staining based analysis
[22] = system: Cell membrane; assay: Induction of inner membrane permeabilization in Escherichia coli ML-35 assessed as increase in […] at 2 times MIC by ONPG staining based analysis
[23] = system: RAW264.7; assay: Antiinflammatory activity in LPS-induced mouse RAW264.7 cells assessed as reduction in NO production at 5 ug/ml measured after 72 hrs by ELISA assay relative to control; assay type: functional
[24] = system: Staphylococcus aureus; assay: Antibacterial activity against Staphylococcus aureus KCTC 1621 strain assessed as bacterial growth inhibition measured at 18 to 24 hrs in presence of 1 mM MgCl2 by microdilution assay; assay type: functional; details: time 18-24 hrs
[25] = system: Pseudomonas aeruginosa; assay: Synergistic antibacterial activity against multidrug-resistant Pseudomonas aeruginosa CCARM 2095 strain assessed as bacterial growth inhibition by checkerboard assay; assay type: functional
[26] = system: Lipopolysaccharide (LPS); assay: Binding affinity to Escherichia coli O111:B4 lipopolysaccharide assessed as suppression of FTIC labeled LPS binding to mouse RAW264.7 cells at 20 ug/ml pretreated LPS with cells for 1 hr followed by compound addition measured after 1 hr by flow cytometer assay (reference value: 48.12%); assay type: cell-based; details: dose 20.0 µg/ml
[27] = system: Pseudomonas aeruginosa; assay: Synergistic antibacterial activity against multidrug-resistant Pseudomonas aeruginosa CCARM 2095 strain assessed as oxacillin fractional inhibitory concentration by checkerboard assay; assay type: functional
[28] = system: Staphylococcus aureus; assay: Antibacterial activity against Staphylococcus aureus KCTC 1621 strain assessed as bacterial growth inhibition measured at 18 to 24 hrs in presence of 4 uM FeCl3 by microdilution assay; assay type: functional; details: time 18-24 hrs
[29] = system: Pseudomonas aeruginosa; assay: Synergistic antibacterial activity against multidrug-resistant Pseudomonas aeruginosa CCARM 2095 strain assessed as oxacillin MIC by checkerboard assay; assay type: functional
[30] = system: Escherichia coli; assay: Antibacterial activity against Escherichia coli KCTC 1682 strain assessed as bacterial growth inhibition measured at 18 to 24 hrs in presence of 6 uM NH4Cl by microdilution assay; assay type: functional; details: time 18-24 hrs
[31] = system: Pseudomonas aeruginosa; assay: Synergistic antibacterial activity against multidrug-resistant Pseudomonas aeruginosa CCARM 2095 strain assessed as bacterial growth inhibition in presence of oxacillin by checkerboard assay; assay type: functional
[32] = system: Staphylococcus aureus; assay: Synergistic antibacterial activity against methicillin-resistant Staphylococcus aureus CCARM 3089 strain assessed as ciprofloxacin MIC by checkerboard assay; assay type: functional
[33] = system: Cell membrane; assay: Induction of cell membrane damage in Escherichia coli KCTC 1682 assessed as increase in fluorescent intensity at 2 times MIC incubated for 30 mins by PI staining based flow cytometry assay (reference value: 9.79 %); assay type: subcellular
[34] = system: Enterococcus faecium; assay: Antibacterial activity against vancomycin-resistant Enterococcus faecium ATCC 51559 strain assessed as bacterial growth inhibition measured at 18 to 24 hrs by microdilution assay; assay type: functional; details: time 18-24 hrs
[35] = system: Pseudomonas aeruginosa; assay: Antibacterial activity against multidrug-resistant Pseudomonas aeruginosa CCARM 2109 strain assessed as bacterial growth inhibition measured at 18 to 24 hrs by microdilution assay; assay type: functional; details: time 18-24 hrs
[36] = system: Escherichia coli; assay: Antibacterial activity against Escherichia coli KCTC 1682 strain assessed as bacterial growth inhibition measured after 6 hrs in presence of trypsin by radial diffusion assay; assay type: functional, organism-based

NCCCCNc1nc(NCCCCN)nc(N2CC(Cc3ccccc3)N(c3nc(NCCCCN)nc(NCCCCN)n3)CC2Cc2ccccc2)n1 (stereo unspecified)
MIC [1]: 10.4 µM (≈ 8 µg/mL) | fractional inhibitory concentration index (FICI) [2]: 0.5 | fractional inhibitory concentration index (FICI) [3]: 0.375 | MHC [4]: > 332.8 µM | MIC [5]: 5.2 µM (≈ 4 µg/mL) | MIC [6]: 128 µg/mL | MIC [7]: 10.4 µM | MIC [8]: 5.2 µM (≈ 4 µg/mL) | Activity [9]: inactive | FIC [10]: 0.125 | MIC [11]: 256 µg/mL | MIC [12]: 10.4 µM | MIC [13]: 8 µg/mL | Activity [14]: inactive | Flu intensity [15]: 19.5% | MIC [16]: 128 µg/mL | Activity [17]: Active | MIC [18]: 5.2 µM | fractional inhibitory concentration index (FICI) [19]: 0.625 | MIC [20]: 1 µg/mL | Activity [21]: inactive | Activity [22]: inactive | inhibition at 5 µg/mL [23]: 72.6% | MIC [24]: 5.2 µM | MIC [25]: 32 µg/mL | Flu intensity [26]: 21.2% | FIC [27]: 0.25 | MIC [28]: 20.8 µM | MIC [29]: 256 µg/mL | MIC [30]: 10.4 µM | MIC [31]: 8 µg/mL | MIC [32]: 64 µg/mL | Flu intensity [33]: 6.03% | MIC [34]: 41.6 µM (≈ 32 µg/mL) | MIC [35]: 10.4 µM (≈ 8 µg/mL) | Activity [36]: Active
